{"source": "patent US20260262643A1", "about": "“HERBICIDAL BENZOXAZINES” (FMC CORPORATION, priority 2022, published 2026)", "key": {"[1]": {"tested_on": "green foxtail", "test": "Test C postemergence", "format": "in vivo, Setaria viridis", "conditions": "10 days, 0 to 100 scale (0 no effect, 100 complete control)", "how_it_was_run": "(§1)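 Greenhouse herbicide screen, 10-day duration. Test chemicals in solvent/surfactant blend were sprayed onto soil at sowing (pre) or onto 2–10 cm seedlings at one to two leaves (post); injury scored visually against controls, 0 no effect to 100 complete control.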"}, "[2]": {"tested_on": "kochia", "test": "Test C preemergence", "format": "in vivo, Bassia scoparia", "how_it_was_run": "as §1"}, "[3]": {"tested_on": "blackgrass", "test": "Test C postemergence", "format": "in vivo, Alopecurus myosuroides", "conditions": "10 days, 0 to 100 scale (0 no effect, 100 complete control)", "how_it_was_run": "as §1"}, "[4]": {"tested_on": "corn", "test": "Test C preemergence", "format": "in vivo, Zea mays", "how_it_was_run": "as §1"}, "[5]": {"tested_on": "barnyardgrass", "test": "Test C preemergence", "format": "in vivo, Echinochloa crusgalli", "how_it_was_run": "as §1"}, "[6]": {"tested_on": "kochia", "test": "Test C postemergence", "format": "in vivo, Bassia scoparia", "conditions": "10 days, 0 to 100 scale (0 no effect, 100 complete control)", "how_it_was_run": "as §1"}, "[7]": {"tested_on": "ragweed", "test": "Test C postemergence", "format": "in vivo, Ambrosia artemisiifolia", "conditions": "Postemergence, 125 g ai/ha; 0 to 100 scale (0 no effect, 100 complete control), 10 days", "how_it_was_run": "as §1"}, "[8]": {"tested_on": "wheat", "test": "Test C preemergence", "format": "in vivo, Triticum aestivum", "how_it_was_run": "as §1"}, "[9]": {"tested_on": "barnyardgrass", "test": "Test D flooded paddy test", "format": "in vivo, Echinochloa crus-galli", "conditions": "250 g ai/ha, applied to paddy water, visual rating after 13 to 14 days, scale 0 to 100 (0 no effect, 100 complete control)", "how_it_was_run": "(§2)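 Post-flood water application at the 2-leaf stage; 3 cm flood depth kept constant; visual control rating 0–100 after 13–14 days greenhouse growth.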"}, "[10]": {"tested_on": "barnyardgrass", "test": "Test C postemergence", "format": "in vivo, Echinochloa crusgalli", "conditions": "10 days, 0 to 100 scale (0 no effect, 100 complete control)", "how_it_was_run": "as §1"}, "[11]": {"tested_on": "galium", "test": "Test C postemergence", "format": "in vivo, Galium aparine", "conditions": "10 days, 0 to 100 scale (0 no effect, 100 complete control)", "how_it_was_run": "as §1"}, "[12]": {"tested_on": "green foxtail", "test": "Test C preemergence", "format": "in vivo, Setaria viridis", "how_it_was_run": "as §1"}, "[13]": {"tested_on": "pigweed, palmer", "test": "Test C postemergence", "format": "in vivo, Amaranthus palmeri", "conditions": "10 days, 0 to 100 scale (0 no effect, 100 complete control)", "how_it_was_run": "as §1"}, "[14]": {"tested_on": "ducksalad", "test": "Test D flooded paddy test", "format": "in vivo, Heteranthera limosa", "conditions": "250 g ai/ha, applied to paddy water, visual rating after 13 to 14 days, scale 0 to 100 (0 no effect, 100 complete control)", "how_it_was_run": "as §2"}, "[15]": {"tested_on": "blackgrass", "test": "Test C preemergence", "format": "in vivo, Alopecurus myosuroides", "how_it_was_run": "as §1"}, "[16]": {"tested_on": "sedge, umbrella", "test": "Test D flooded paddy test", "format": "in vivo, Cyperus difformis", "conditions": "250 g ai/ha, applied to paddy water, visual rating after 13 to 14 days, scale 0 to 100 (0 no effect, 100 complete control)", "how_it_was_run": "as §2"}, "[17]": {"tested_on": "horseweed", "test": "Test C postemergence", "format": "in vivo, Erigeron canadensis", "conditions": "10 days, 0 to 100 scale (0 no effect, 100 complete control)", "how_it_was_run": "as §1"}, "[18]": {"tested_on": "ragweed", "test": "Test C preemergence", "format": "in vivo, Ambrosia artemisiifolia", "how_it_was_run": "as §1"}, "[19]": {"tested_on": "corn", "test": "Test C postemergence", "format": "in vivo, Zea mays", "conditions": "10 days, 0 to 100 scale (0 no effect, 100 complete control)", "how_it_was_run": "as §1"}, "[20]": {"tested_on": "oat, wild", "test": "Test C postemergence", "format": "in vivo, Avena fatua", "conditions": "10 days, 0 to 100 scale (0 no effect, 100 complete control)", "how_it_was_run": "as §1"}, "[21]": {"tested_on": "pigweed, palmer", "test": "Test C preemergence", "format": "in vivo, Amaranthus palmeri", "how_it_was_run": "as §1"}, "[22]": {"tested_on": "soybean", "test": "Test C preemergence", "format": "in vivo, Glycine max", "how_it_was_run": "as §1"}, "[23]": {"tested_on": "ryegrass, Italian", "test": "Test C preemergence", "format": "in vivo, Lolium multiflorum", "how_it_was_run": "as §1"}, "[24]": {"tested_on": "oat, wild", "test": "Test C preemergence", "format": "in vivo, Avena fatua", "how_it_was_run": "as §1"}, "[25]": {"tested_on": "wheat", "test": "Test C postemergence", "format": "in vivo, Triticum aestivum", "conditions": "Postemergence, 125 g ai/ha; 0 to 100 scale (0 no effect, 100 complete control), 10 days", "how_it_was_run": "as §1"}, "[26]": {"tested_on": "ryegrass, Italian", "test": "Test C postemergence", "format": "in vivo, Lolium multiflorum", "conditions": "Postemergence, 125 g ai/ha; 0 to 100 scale (0 no effect, 100 complete control), 10 days", "how_it_was_run": "as §1"}, "[27]": {"tested_on": "rice", "test": "Test D flooded paddy test", "format": "in vivo, Oryza sativa", "conditions": "250 g ai/ha, applied to paddy water, visual rating after 13 to 14 days, scale 0 to 100 (0 no effect, 100 complete control)", "how_it_was_run": "as §2"}, "[28]": {"tested_on": "soybean", "test": "Test C postemergence", "format": "in vivo, Glycine max", "conditions": "Postemergence, 125 g ai/ha; 0 to 100 scale (0 no effect, 100 complete control), 10 days", "how_it_was_run": "as §1"}, "[29]": {"conditions": "500 g ai/ha, preemergence, 0 to 100 scale (0 no effect, 100 complete control)"}, "[30]": {"conditions": "Preemergence, 125 g ai/ha, 0 to 100 scale, 0 no effect, 100 complete control"}}}
{"smiles": "COC[C@H]1CN(C(=O)c2cc(-n3cnc(C(C)C)n3)cc3c2OCCO3)c2cccc(Cl)c2O1", "note": "[Compound 395]", "values": [{"measurement": "Plant response rating, Foxtail, Green", "setting": "[1]; 500 g ai/ha, postemergence", "result": 80}, {"measurement": "Plant response rating, Foxtail, Green", "setting": "[1]; Postemergence, 125 g ai/ha", "result": 70}, {"measurement": "Kochia plant response rating", "setting": "[2]; [29]", "result": 100}, {"measurement": "Plant response rating, Kochia", "setting": "[2]; [30]", "result": 100}, {"measurement": "Plant response rating, Blackgrass", "setting": "[3]; 500 g ai/ha, postemergence", "result": 90}, {"measurement": "Plant response rating, Blackgrass", "setting": "[3]; Postemergence, 125 g ai/ha", "result": 40}, {"measurement": "Corn plant response rating", "setting": "[4]; [29]", "result": 50}, {"measurement": "Plant response rating, Corn", "setting": "[4]; [30]", "result": 30}, {"measurement": "Barnyardgrass plant response rating", "setting": "[5]; [29]", "result": 100}, {"measurement": "Plant response rating, Barnyardgrass", "setting": "[5]; [30]", "result": 80}, {"measurement": "Plant response rating, Kochia", "setting": "[6]; 500 g ai/ha, postemergence", "result": 100}, {"measurement": "Plant response rating, Kochia", "setting": "[6]; Postemergence, 125 g ai/ha", "result": 90}, {"measurement": "Plant response rating, Ragweed", "setting": "[7]", "result": 70}, {"measurement": "Wheat plant response rating", "setting": "[8]; [29]", "result": 80}, {"measurement": "Plant response rating, Wheat", "setting": "[8]; [30]", "result": 30}, {"measurement": "Plant response rating, Barnyardgrass (Flood)", "setting": "[9]", "result": 0}, {"measurement": "Plant response rating, Barnyardgrass", "setting": "[10]; 500 g ai/ha, postemergence", "result": 70}, {"measurement": "Plant response rating, Barnyardgrass", "setting": "[10]; Postemergence, 125 g ai/ha", "result": 40}, {"measurement": "Plant response rating, Galium", "setting": "[11]; 500 g ai/ha, postemergence", "result": 100}, {"measurement": "Plant response rating, Galium", "setting": "[11]; Postemergence, 125 g ai/ha", "result": 100}, {"measurement": "Foxtail, Green plant response rating", "setting": "[12]; [29]", "result": 100}, {"measurement": "Plant response rating, Foxtail, Green", "setting": "[12]; [30]", "result": 100}, {"measurement": "Plant response rating, Pigweed, Palmer", "setting": "[13]; 500 g ai/ha, postemergence", "result": 100}, {"measurement": "Plant response rating, Pigweed, Palmer", "setting": "[13]; Postemergence, 125 g ai/ha", "result": 90}, {"measurement": "Plant response rating, Ducksalad (Flood)", "setting": "[14]", "result": 0}, {"measurement": "Blackgrass plant response rating", "setting": "[15]; [29]", "result": 90}, {"measurement": "Plant response rating, Blackgrass", "setting": "[15]; [30]", "result": 50}, {"measurement": "Plant response rating, Sedge, Umbrella (Flood)", "setting": "[16]", "result": 0}, {"measurement": "Plant response rating, Horseweed", "setting": "[17]; 500 g ai/ha, postemergence", "result": 60}, {"measurement": "Plant response rating, Horseweed", "setting": "[17]; Postemergence, 125 g ai/ha", "result": 50}, {"measurement": "Ragweed plant response rating", "setting": "[18]; [29]", "result": 90}, {"measurement": "Plant response rating, Ragweed", "setting": "[18]; [30]", "result": 90}, {"measurement": "Plant response rating, Corn", "setting": "[19]; 500 g ai/ha, postemergence", "result": 90}, {"measurement": "Plant response rating, Corn", "setting": "[19]; Postemergence, 125 g ai/ha", "result": 70}, {"measurement": "Plant response rating, Oat, Wild", "setting": "[20]; 500 g ai/ha, postemergence", "result": 60}, {"measurement": "Plant response rating, Oat, Wild", "setting": "[20]; Postemergence, 125 g ai/ha", "result": 50}, {"measurement": "Pigweed, Palmer plant response rating", "setting": "[21]; [29]", "result": 100}, {"measurement": "Plant response rating, Pigweed, Palmer", "setting": "[21]; [30]", "result": 100}, {"measurement": "Soybean plant response rating", "setting": "[22]; [29]", "result": 100}, {"measurement": "Plant response rating, Soybean", "setting": "[22]; [30]", "result": 70}, {"measurement": "Ryegrass, Italian plant response rating", "setting": "[23]; [29]", "result": 90}, {"measurement": "Plant response rating, Ryegrass, Italian", "setting": "[23]; [30]", "result": 80}, {"measurement": "Oat, Wild plant response rating", "setting": "[24]; [29]", "result": 90}, {"measurement": "Plant response rating, Oat, Wild", "setting": "[24]; [30]", "result": 50}, {"measurement": "Plant response rating, Wheat", "setting": "[25]", "result": 40}, {"measurement": "Plant response rating, Ryegrass, Italian", "setting": "[26]", "result": 60}, {"measurement": "Plant response rating, Rice (Flood)", "setting": "[27]", "result": 0}, {"measurement": "Plant response rating, Soybean", "setting": "[28]", "result": 100}]}
